According to publication PMC7156458, “Synthetic biology based construction of biological activity-related library of fungal decalin-containing diterpenoid pyrones” (Nature Communications, 2020):

Molecular target: Aβ42 (Homo sapiens, UniProt P05067)
Test: Th-T (thioflavin-T) assay of Aβ42 aggregation
Format: biochemical
Conditions: for Th-T assay plate reading, mean of three wells (Supplementary Fig. 47): source data, Ab alone and No Ab as controls

Chain of Aβ42 (P05067 672-713): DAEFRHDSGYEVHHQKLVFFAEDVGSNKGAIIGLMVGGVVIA

In the case of `C=C1CC[C@H]2[C@]3(C)C[C@H](C=C(C)C)O[C@H]3CC[C@]2(C)[C@@H]1Cc1c(OC)oc(CO)c(C)c1=O` [Compound 18], the “Th-T fluorescence, mean of three wells” value (Aβ42 aggregation time course, reading M117) is reported as 3.827, the “Th-T fluorescence, mean of three wells” value (Aβ42 aggregation time course, reading M118) is reported as 3.826 and the “Th-T fluorescence, mean of three wells” value (Aβ42 aggregation time course, reading M119) is reported as 3.802. The “Th-T fluorescence, mean of three wells” value (Aβ42 aggregation time course, reading M120) was 3.809, the “Th-T fluorescence, mean of three wells” value (Aβ42 aggregation time course, reading M121) was 3.768 and the “Th-T fluorescence, mean of three wells” value (Aβ42 aggregation time course, reading M122) was 3.8239. For the same molecule, the “Th-T fluorescence, mean of three wells” value (Aβ42 aggregation time course, reading M123) was 3.779, the “Th-T fluorescence, mean of three wells” value (Aβ42 aggregation time course, reading M124) was 3.775 and the “Th-T fluorescence, mean of three wells” value (Aβ42 aggregation time course, reading M125) was 3.791. For the same molecule, the “Th-T fluorescence, mean of three wells” value (Aβ42 aggregation time course, reading M126) was 3.753, the “Th-T fluorescence, mean of three wells” value (Aβ42 aggregation time course, reading M127) was 3.782 and the “Th-T fluorescence, mean of three wells” value (Aβ42 aggregation time course, reading M128) was 3.792. For the same molecule, the “Th-T fluorescence, mean of three wells” value (Aβ42 aggregation time course, reading M129) was 3.762, the “Th-T fluorescence, mean of three wells” value (Aβ42 aggregation time course, reading M130) was 3.763 and the “Th-T fluorescence, mean of three wells” value (Aβ42 aggregation time course, reading M131) was 3.755. For the same molecule, the “Th-T fluorescence, mean of three wells” value (Aβ42 aggregation time course, reading M132) was 3.815, the “Th-T fluorescence, mean of three wells” value (Aβ42 aggregation time course, reading M133) was 3.777 and the “Th-T fluorescence, mean of three wells” value (Aβ42 aggregation time course, reading M134) was 3.764. The “Th-T fluorescence, mean of three wells” value (Aβ42 aggregation time course, reading M135) was 3.756, the “Th-T fluorescence, mean of three wells” value (Aβ42 aggregation time course, reading M136) was 3.746 and the “Th-T fluorescence, mean of three wells” value (Supplementary Fig. 47, reading M137) was 3.774. The “Th-T fluorescence, mean of three wells” value (Supplementary Fig. 47, reading M138) was 3.771, the “Th-T fluorescence, mean of three wells” value (Supplementary Fig. 47, reading M139) was 3.713 and the “Th-T fluorescence, mean of three wells” value (Supplementary Fig. 47, reading M140) was 3.758. For the same molecule, the “Th-T fluorescence, mean of three wells” value (Supplementary Fig. 47, reading M141) was 3.7322, the “Th-T fluorescence, mean of three wells” value (Supplementary Fig. 47, reading M142) was 3.721 and the “Th-T fluorescence, mean of three wells” value (Supplementary Fig. 47, reading M143) was 3.695. The “Th-T fluorescence, mean of three wells” value (Supplementary Fig. 47, reading M144) was 3.702, the “Th-T fluorescence, mean of three wells” value (Supplementary Fig. 47, reading M145) was 3.716 and the “Th-T fluorescence, mean of three wells” value (Supplementary Fig. 47 source data, measurement M37 of time course) was 3.803. For the same molecule, the “Th-T fluorescence, mean of three wells” value (Supplementary Fig. 47 source data, measurement M38 of time course) was 3.788, the “Th-T fluorescence, mean of three wells” value (Supplementary Fig. 47 source data, measurement M39 of time course) was 3.823 and the “Th-T fluorescence, mean of three wells” value (Supplementary Fig. 47 source data, measurement M40 of time course) was 3.844. The “Th-T fluorescence, mean of three wells” value (Supplementary Fig. 47 source data, measurement M41 of time course) was 3.831, the “Th-T fluorescence, mean of three wells” value (Supplementary Fig. 47 source data, measurement M42 of time course) was 3.8461 and the “Th-T fluorescence, mean of three wells” value (Supplementary Fig. 47 source data, measurement M43 of time course) was 3.853. The “Th-T fluorescence, mean of three wells” value (Supplementary Fig. 47 source data, measurement M44 of time course) was 3.884, the “Th-T fluorescence, mean of three wells” value (Supplementary Fig. 47 source data, measurement M45 of time course) was 3.893 and the “Th-T fluorescence, mean of three wells” value (Supplementary Fig. 47 source data, measurement M46 of time course) was 3.909. For the same molecule, the “Th-T fluorescence, mean of three wells” value (Supplementary Fig. 47 source data, measurement M47 of time course) was 3.912, the “Th-T fluorescence, mean of three wells” value (Supplementary Fig. 47 source data, measurement M48 of time course) was 3.912 and the “Th-T fluorescence, mean of three wells” value (Supplementary Fig. 47 source data, measurement M49 of time course) was 3.934. The “Th-T fluorescence, mean of three wells” value (Supplementary Fig. 47 source data, measurement M50 of time course) was 3.962, the “Th-T fluorescence, mean of three wells” value (Supplementary Fig. 47 source data, measurement M51 of time course) was 3.932 and the “Th-T fluorescence, mean of three wells” value (Supplementary Fig. 47 source data, measurement M52 of time course) was 3.964. The “Th-T fluorescence, mean of three wells” value (Supplementary Fig. 47 source data, measurement M53 of time course) was 3.941, the “Th-T fluorescence, mean of three wells” value (Supplementary Fig. 47 source data, measurement M54 of time course) was 3.968 and the “Th-T fluorescence, mean of three wells” value (Supplementary Fig. 47 source data, measurement M55 of time course) was 3.9543. The “Th-T fluorescence, mean of three wells” value (Supplementary Fig. 47 source data, measurement M56 of time course) was 4.004, the “Th-T assay plate reading, mean of three wells (Supplementary Fig. 47)” value (from here on “Th-T assay plate reading, mean”) (measurement M1) was 0.2027 and the “Th-T assay plate reading, mean” value (measurement M2) was 0.2169. The “Th-T assay plate reading, mean” value (measurement M3) was 0.2567, the “Th-T assay plate reading, mean” value (measurement M4) was 0.2868 and the “Th-T assay plate reading, mean” value (measurement M5) was 0.363. The “Th-T assay plate reading, mean” value (measurement M6) was 0.3665, the “Th-T assay plate reading, mean” value (measurement M7) was 0.43 and the “Th-T assay plate reading, mean” value (measurement M8) was 0.4699. The “Th-T assay plate reading, mean” value (measurement M9) was 0.5243, the “Th-T assay plate reading, mean” value (measurement M10) was 0.5956 and the “Th-T assay plate reading, mean” value (measurement M11) was 0.7582. The “Th-T assay plate reading, mean” value (measurement M12) was 1.169, the “Th-T assay plate reading, mean” value (measurement M13) was 1.941 and the “Th-T assay plate reading, mean” value (measurement M14) was 2.67. The “Th-T assay plate reading, mean” value (measurement M15) was 3.082, the “Th-T assay plate reading, mean” value (measurement M16) was 3.287 and the “Th-T fluorescence, mean of three wells” value (reading M17, Supplementary Fig. 47 source data) was 3.39. For the same molecule, the “Th-T fluorescence, mean of three wells” value (reading M18, Supplementary Fig. 47 source data) was 3.467, the “Th-T fluorescence, mean of three wells” value (reading M19, Supplementary Fig. 47 source data) was 3.485 and the “Th-T fluorescence, mean of three wells” value (reading M20, Supplementary Fig. 47 source data) was 3.511. The “Th-T fluorescence, mean of three wells” value (reading M21, Supplementary Fig. 47 source data) was 3.555, the “Th-T fluorescence, mean of three wells” value (reading M22, Supplementary Fig. 47 source data) was 3.568 and the “Th-T fluorescence, mean of three wells” value (reading M23, Supplementary Fig. 47 source data) was 3.6. For the same molecule, the “Th-T fluorescence, mean of three wells” value (reading M24, Supplementary Fig. 47 source data) was 3.61, the “Th-T fluorescence, mean of three wells” value (reading M25, Supplementary Fig. 47 source data) was 3.637 and the “Th-T fluorescence, mean of three wells” value (reading M26, Supplementary Fig. 47 source data) was 3.637. For the same molecule, the “Th-T fluorescence, mean of three wells” value (reading M27, Supplementary Fig. 47 source data) was 3.663, the “Th-T fluorescence, mean of three wells” value (reading M28, Supplementary Fig. 47 source data) was 3.673 and the “Th-T fluorescence, mean of three wells” value (reading M29, Supplementary Fig. 47 source data) was 3.697. The “Th-T fluorescence, mean of three wells” value (reading M30, Supplementary Fig. 47 source data) was 3.695, the “Th-T fluorescence, mean of three wells” value (reading M31, Supplementary Fig. 47 source data) was 3.715 and the “Th-T fluorescence, mean of three wells” value (reading M32, Supplementary Fig. 47 source data) was 3.7502. For the same molecule, the “Th-T fluorescence, mean of three wells” value (reading M33, Supplementary Fig. 47 source data) was 3.748, the “Th-T fluorescence, mean of three wells” value (reading M34, Supplementary Fig. 47 source data) was 3.745 and the “Th-T fluorescence, mean of three wells” value (reading M35, Supplementary Fig. 47 source data) was 3.779. For the same molecule, the “Th-T fluorescence, mean of three wells” value (reading M36, Supplementary Fig. 47 source data) was 3.8, the “Th-T fluorescence, mean of three wells” value (time course, reading M57) was 3.991 and the “Th-T fluorescence, mean of three wells” value (time course, reading M58) was 4.013. The “Th-T fluorescence, mean of three wells” value (time course, reading M59) was 3.958, the “Th-T fluorescence, mean of three wells” value (time course, reading M60) was 3.988 and the “Th-T fluorescence, mean of three wells” value (time course, reading M61) was 3.973. For the same molecule, the “Th-T fluorescence, mean of three wells” value (time course, reading M62) was 3.97, the “Th-T fluorescence, mean of three wells” value (time course, reading M63) was 3.951 and the “Th-T fluorescence, mean of three wells” value (time course, reading M64) was 3.976. The “Th-T fluorescence, mean of three wells” value (time course, reading M65) was 3.959, the “Th-T fluorescence, mean of three wells” value (time course, reading M66) was 3.962 and the “Th-T fluorescence, mean of three wells” value (time course, reading M67) was 3.958. For the same molecule, the “Th-T fluorescence, mean of three wells” value (time-course reading M97, Supplementary Fig. 47 source data) was 3.893, the “Th-T fluorescence, mean of three wells” value (time-course reading M98, Supplementary Fig. 47 source data) was 3.89 and the “Th-T fluorescence, mean of three wells” value (time-course reading M99, Supplementary Fig. 47 source data) was 3.924. For the same molecule, the “Th-T fluorescence, mean of three wells” value (time-course reading M100, Supplementary Fig. 47 source data) was 3.864, the “Th-T fluorescence, mean of three wells” value (time-course reading M101, Supplementary Fig. 47 source data) was 3.863 and the “Th-T fluorescence, mean of three wells” value (time-course reading M102, Supplementary Fig. 47 source data) was 3.862. The “Th-T fluorescence, mean of three wells” value (time-course reading M103, Supplementary Fig. 47 source data) was 3.898, the “Th-T fluorescence, mean of three wells” value (time-course reading M104, Supplementary Fig. 47 source data) was 3.892 and the “Th-T fluorescence, mean of three wells” value (time-course reading M105, Supplementary Fig. 47 source data) was 3.876. The “Th-T fluorescence, mean of three wells” value (time-course reading M106, Supplementary Fig. 47 source data) was 3.8607, the “Th-T fluorescence, mean of three wells” value (time-course reading M107, Supplementary Fig. 47 source data) was 3.854 and the “Th-T fluorescence, mean of three wells” value (time-course reading M108, Supplementary Fig. 47 source data) was 3.8485. For the same molecule, the “Th-T fluorescence, mean of three wells” value (time-course reading M109, Supplementary Fig. 47 source data) was 3.821, the “Th-T fluorescence, mean of three wells” value (time-course reading M110, Supplementary Fig. 47 source data) was 3.872 and the “Th-T fluorescence, mean of three wells” value (time-course reading M111, Supplementary Fig. 47 source data) was 3.799. For the same molecule, the “Th-T fluorescence, mean of three wells” value (time-course reading M112, Supplementary Fig. 47 source data) was 3.848, the “Th-T fluorescence, mean of three wells” value (time-course reading M113, Supplementary Fig. 47 source data) was 3.819 and the “Th-T fluorescence, mean of three wells” value (time-course reading M114, Supplementary Fig. 47 source data) was 3.862. For the same molecule, the “Th-T fluorescence, mean of three wells” value (time-course reading M115, Supplementary Fig. 47 source data) was 3.831 and the “Th-T fluorescence, mean of three wells” value (time-course reading M116, Supplementary Fig. 47 source data) was 3.8198.
